Structures can show the parent of a compound that is named as a salt.
Biological target: recombinantly expressed human PARP-1 enzyme (Homo sapiens, UniProt P09874)
Experiment: PARP enzyme assay, Method B (tritium-labeled NAD incorporation)
Type: biochemical
Details: Method B; 200 μM NAD, room temperature 1 hour, pH 8.0; read-out: IC50 (μM)/Method B
Experimental: Method B: PARP Enzyme Assay:
The IC50 is determined in this method by incubating the substances to be tested with the DNA-activated, recombinantly expressed and purified PARP-1 enzyme. Specifically, various concentrations of the test substance are incubated in 50 μL of reaction solution, which contains 50 mM Tris, 5 mM MgCl2, 1 mM DTT, 200 μM NAD, 0.1 m Ci/mL tritium-labeled NAD, 0.1 mg/mL DNA, 0.1 mg/mL histones, 2 μg/mL recombinantly expressed human PARP-1 enzyme, pH=8.0, at room temperature for 1 hour. The reaction is stopped by adding 150 μL of 20% trichloroacetic acid, and the radiolabeled protein constituents are precipitated. After incubation on ice for 10 minutes, the labeled, insoluble constituents are separated off through a glass fiber filter and, after washing with 20% trichloroacetic acid three times, the radioactivity incorporated by the PARP-1 enzyme is measured by radioluminescence. Consideration of the incorporation rates determined in this way as a function of the concentration of the test substance results in IC50 as the concentration of the test substance which reduces the incorporation rate to half the maximum value attainable (incubation without inhibitor).
The IC50 (fifty percent inhibitory concentration of the test substance in a solution—expressed at micromolar (μM) concentration) measured in accordance with these procedures for the compounds of this invention are summarized in Table 1.

Chain of recombinantly expressed human PARP-1 enzyme (P09874 whole entry): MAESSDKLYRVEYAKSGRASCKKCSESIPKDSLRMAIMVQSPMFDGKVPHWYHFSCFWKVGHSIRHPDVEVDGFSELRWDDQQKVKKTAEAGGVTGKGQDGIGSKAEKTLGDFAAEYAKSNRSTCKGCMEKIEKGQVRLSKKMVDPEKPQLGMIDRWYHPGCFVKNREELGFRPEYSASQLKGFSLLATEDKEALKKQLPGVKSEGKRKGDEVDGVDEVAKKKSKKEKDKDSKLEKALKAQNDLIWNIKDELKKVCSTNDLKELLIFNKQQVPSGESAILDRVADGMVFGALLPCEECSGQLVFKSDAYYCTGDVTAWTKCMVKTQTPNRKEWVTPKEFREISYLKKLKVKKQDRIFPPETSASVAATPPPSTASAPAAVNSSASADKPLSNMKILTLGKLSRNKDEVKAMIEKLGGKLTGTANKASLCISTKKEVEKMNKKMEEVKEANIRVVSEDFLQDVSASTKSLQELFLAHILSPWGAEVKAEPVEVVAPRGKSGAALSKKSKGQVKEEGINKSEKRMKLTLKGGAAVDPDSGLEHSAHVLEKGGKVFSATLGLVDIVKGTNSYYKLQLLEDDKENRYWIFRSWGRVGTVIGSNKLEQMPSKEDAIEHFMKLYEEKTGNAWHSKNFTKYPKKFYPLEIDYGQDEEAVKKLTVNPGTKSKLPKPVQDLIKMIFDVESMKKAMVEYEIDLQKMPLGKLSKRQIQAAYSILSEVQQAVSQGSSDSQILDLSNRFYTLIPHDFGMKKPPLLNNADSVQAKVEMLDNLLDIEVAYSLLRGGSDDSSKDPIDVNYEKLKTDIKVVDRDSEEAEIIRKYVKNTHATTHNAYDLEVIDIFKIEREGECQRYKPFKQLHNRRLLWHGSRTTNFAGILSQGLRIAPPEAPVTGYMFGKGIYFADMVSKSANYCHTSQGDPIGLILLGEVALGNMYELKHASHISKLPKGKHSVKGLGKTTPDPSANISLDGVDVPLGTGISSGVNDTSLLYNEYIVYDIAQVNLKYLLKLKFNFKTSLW

SMILES	IC50
CCc1cc(-c2cccc(CNCc3ccccn3)n2)c(C)[nH]c1=O [Example 182H, 5′-Ethyl-2′-methyl-6-{[(pyridin-2-ylmethyl)-amino]-methyl}-1′H-[2,3′]bipyridinyl-6′-one]	1.11 µM
CCc1cc(-c2cncc(C(=O)Nc3cc(C(C)(C)C)[nH]n3)c2)c(C)[nH]c1=O [Example 258, 5′-Ethyl-2′-methyl-6′-oxo-1′,6′-dihydro-[3,3′]bipyridinyl-5-carboxylic acid (5-tert-butyl-1H-pyrazol-3-yl)-amide]	0.62 µM
CCc1cc(-c2cncc(C(=O)NCc3ccccn3)c2)c(C)[nH]c1=O [Example 221, 5′-Ethyl-2′-methyl-6′-oxo-1′,6′-dihydro-[3,3′]bipyridinyl-5-carboxylic acid (pyridin-2-ylmethyl)-amide]	2.04 µM
CCc1cc(-c2ccc(CN(C)Cc3ccccc3)o2)c(C)[nH]c1=O [Example 179, 5-{5-[(Benzylmethylamino)methyl]furan-2-yl)-3-ethyl-6-methyl-1H-pyridin-2-one]	2.11 µM
CCc1cc(-c2ccc(S(=O)(=O)NCCc3ccccn3)s2)c(C)[nH]c1=O [Example 43A, 5-(5-Ethyl-2-methyl-6-oxo-1,6-dihydropyridin-3-yl)thiophene-2-sulfonic acid 2-(pyridin-2-yl)ethylamide]	0.67 µM
CCc1cc(-c2cncc(C(=O)NCc3ccc(S(N)(=O)=O)cc3)c2)c(C)[nH]c1=O [Example 255, 5′-Ethyl-2′-methyl-6′-oxo-1′,6′-dihydro-[3,3′]bipyridinyl-5-carboxylic acid 4-sulfamoyl-benzylamide]	0.28 µM
CCc1cc(-c2cncc(C(=O)NCCC3CCOCC3)c2)c(C)[nH]c1=O [Example 242, 5′-Ethyl-2′-methyl-6′-oxo-1′,6′-dihydro-[3,3′]bipyridinyl-5-carboxylic acid [2-(tetrahydro-pyran-4-yl)-ethyl]-amide]	1.79 µM
CCc1cc(-c2ccc(CNC(=O)c3ccc(OC)cc3)o2)c(C)[nH]c1=O [Example 272, N-[5-(5-Ethyl-2-methyl-6-oxo-1,6-dihydro-pyridin-3-yl)-furan-2-ylmethyl]-4-methoxy-benzamide]	0.44 µM
CCc1cc(-c2ccc(CNC(=O)Cc3ccccc3)o2)c(C)[nH]c1=O [Example 270, N-[5-(5-Ethyl-2-methyl-6-oxo-1,6-dihydro-pyridin-3-yl)-furan-2-ylmethyl]-2-phenyl-acetamide]	1.18 µM
CCCCNC(=O)c1ccnc(-c2cc(CC)c(=O)[nH]c2C)c1 [Example 215, 5′-Ethyl-2′-methyl-6′-oxo-1′,6′-dihydro-[2,3′]bipyridinyl-4-carboxylic acid butylamide]	1.25 µM
CCc1cc(-c2cncc(C(=O)N3CCN(C(=O)C4CC4)CC3)c2)c(C)[nH]c1=O [Example 252, 5′-(4-Cyclopropanecarbonyl-piperazine-1-carbonyl)-5-ethyl-2-methyl-1H-[3,3′]bipyridinyl-6-one]	6.1 µM
CCc1cc(-c2cncc(C(=O)NCCc3ccc(C(=O)O)cc3)c2)c(C)[nH]c1=O [Example 243, 4-{2-[(5′-Ethyl-2′-methyl-6′-oxo-1′,6′-dihydro-[3,3′]bipyridinyl-5-carbonyl)-amino]-ethyl}-benzoic acid]	2.29 µM
CCc1cc(-c2cncc(C(=O)NCC3CC(c4ccncc4)=NO3)c2)c(C)[nH]c1=O (stereo not drawn) [Example 257, 5′-Ethyl-2′-methyl-6′-oxo-1′,6′-dihydro-[3,3′]bipyridinyl-5-carboxylic acid (3-pyridin-4-yl-4,5-dihydro-isoxazol-5-ylmethyl)-amide]	0.57 µM
CCc1cc(-c2cncc(C(=O)NCc3ccccc3)c2)c(C)[nH]c1=O [Example 220, 5′-Ethyl-2′-methyl-6′-oxo-1′,6′-dihydro-[3,3′]bipyridinyl-5-carboxylic acid benzylamide]	1.27 µM
CCc1cc(-c2cncc(C(=O)N(CC)CC)c2)c(C)[nH]c1=O [Example 227, 5′-Ethyl-2′-methyl-6′-oxo-1′,6′-dihydro-[3,3′]bipyridinyl-5-carboxylic acid diethylamide]	1.98 µM
CCc1cc(-c2ccc(S(=O)(=O)NC(C)c3ccccn3)s2)c(C)[nH]c1=O (stereo not drawn) [Example 43, 5-(5-Ethyl-2-methyl-6-oxo-1,6-dihydropyridin-3-yl)thiophene-2-sulfonic acid 1-(pyridin-2-yl)ethylamide hydrochloride]	0.21 µM
CCc1cc(-c2cncc(C(=O)NCCc3cccc(OC)c3)c2)c(C)[nH]c1=O [Example 240, 5′-Ethyl-2′-methyl-6′-oxo-1′,6′-dihydro-[3,3′]bipyridinyl-5-carboxylic acid [2-(3-methoxy-phenyl)-ethyl]-amide]	3.88 µM

SMILES	IC50
CCc1cc(-c2cncc(C(=O)Nc3ccccc3CC(N)=O)c2)c(C)[nH]c1=O [Example 251, 5′-Ethyl-2′-methyl-6′-oxo-1′,6′-dihydro-[3,3′]bipyridinyl-5-carboxylic acid (2-carbamoylmethyl-phenyl)-amide]	0.1 µM
CCc1cc(-c2cncc(C(=O)NCC(N)=O)c2)c(C)[nH]c1=O [Example 225, 5′-Ethyl-2′-methyl-6′-oxo-1′,6′-dihydro-[3,3′]bipyridinyl-5-carboxylic acid carbamoylmethyl-amide]	5.5 µM
CCc1cc(-c2ccc(CNC(=O)CN3CCCC3)s2)c(C)[nH]c1=O [Example 276, N-[5-(5-Ethyl-2-methyl-6-oxo-1,6-dihydropyridin-3-yl)-thiophen-2-ylmethyl]-2-pyrrolidin-1-yl-acetamide]	0.8 µM
CCc1cc(-c2cccc(NS(=O)(=O)c3ccc(NC(C)=O)cc3)n2)c(C)[nH]c1=O [Example 278, N-[4-(5′-Ethyl-2′-methyl-6′-oxo-1′,6′-dihydro-[2,3′]bipyridinyl-6-ylsulfamoyl)-phenyl]-acetamide]	7.9 µM
CCc1cc(-c2cncc(C(=O)NCC(=O)c3ccc(OC)cc3)c2)c(C)[nH]c1=O [Example 256, 5′-Ethyl-2′-methyl-6′-oxo-1′,6′-dihydro-[3,3′]bipyridinyl-5-carboxylic acid [2-(4-methoxy-phenyl)-2-oxo-ethyl]-amide]	0.45 µM
CCc1cc(-c2cncc(C(=O)NCCc3nc4ccccc4[nH]3)c2)c(C)[nH]c1=O [Example 245, 5′-Ethyl-2′-methyl-6′-oxo-1′,6′-dihydro-[3,3′]bipyridinyl-5-carboxylic acid [2-(1H-benzoimidazol-2-yl)-ethyl]-amide]	1.9 µM
CCc1cc(-c2ccc(S(=O)(=O)NCc3ccc(S(C)(=O)=O)cc3)s2)c(C)[nH]c1=O [Example 122C, 5-(5-Ethyl-2-methyl-6-oxo-1,6-dihydro-pyridin-3-yl)-thiophene-2-sulfonic acid 4-methanesulfonyl-benzylamide]	0.86 µM
CCc1cc(-c2cncc(C(=O)N(CC)Cc3ccncc3)c2)c(C)[nH]c1=O [Example 235, 5′-Ethyl-2′-methyl-6′-oxo-1′,6′-dihydro-[3,3′]bipyridinyl-5-carboxylic acid ethyl-pyridin-4-ylmethyl-amide]	1.86 µM
CCc1cc(-c2cc(C(=O)NCCc3ccc([N+](=O)[O-])cc3)ccn2)c(C)[nH]c1=O [Example 213, 5′-Ethyl-2′-methyl-6′-oxo-1′,6′-dihydro-[2,3′]bipyridinyl-4-carboxylic acid [2-(4-nitro-phenyl)-ethyl]-amide]	0.21 µM
CCc1cc(-c2cncc(C(=O)NC(CC)c3ccc(C)nc3)c2)c(C)[nH]c1=O (stereo not drawn) [Example 224, 5′-Ethyl-2′-methyl-6′-oxo-1′,6′-dihydro-[3,3′]bipyridinyl-5-carboxylic acid [1-(6-methyl-pyridin-3-yl)-propyl]-amide]	5.9 µM
CCc1cc(-c2ccc(CNC(=O)C3CCCC3)o2)c(C)[nH]c1=O [Example 269, Cyclopentanecarboxylic acid [5-(5-ethyl-2-methyl-6-oxo-1,6-dihydro-pyridin-3-yl)-furan-2-ylmethyl]-amide]	1.97 µM
CCc1cc(-c2ccc(CNCc3ccccc3)o2)c(C)[nH]c1=O [Example 123, 5-[5-(Benzylamino-methyl)-furan-2-yl]-3-ethyl-6-methyl-1H-pyridin-2-one hydrochloride]	0.58 µM
CCc1cc(-c2cccc(C(=O)NCCc3ccc([N+](=O)[O-])cc3)n2)c(C)[nH]c1=O [Example 205, 5′-Ethyl-2′-methyl-6′-oxo-1′,6′-dihydro-[2,3′]bipyridinyl-6-carboxylic acid [2-(4-nitro-phenyl)-ethyl]-amide]	0.57 µM
CCc1cc(-c2cncc(C(=O)NCCc3ccncc3)c2)c(C)[nH]c1=O [Example 238, 5′-Ethyl-2′-methyl-6′-oxo-1′,6′-dihydro-[3,3′]bipyridinyl-5-carboxylic acid (2-pyridin-4-yl-ethyl)-amide]	0.35 µM
CCc1cc(-c2ccc(S(=O)(=O)NCc3ccccn3)s2)c(C)[nH]c1=O [Example 31, 5-(5-Ethyl-2-methyl-6-oxo-1,6-dihydropyridin-3-yl)thiophene-2-sulfonic acid (pyridin-2-yl)methylamide hydrochloride]	0.44 µM
CCc1cc(-c2cc(C(=O)NCCc3ccncc3)ccn2)c(C)[nH]c1=O [Example 218, 5′-Ethyl-2′-methyl-6′-oxo-1′,6′-dihydro-[2,3′]bipyridinyl-4-carboxylic acid (2-pyridin-4-yl-ethyl)-amide]	0.58 µM

Reference: patent publication US8173682B2, “Substituted pyridones as inhibitors of poly(ADP-ribose) polymerase (PARP)” (Aventis Pharmaceuticals Inc., priority 2004, dated 2012)
